Activity data for eleven compounds are collected here from ChEMBL document CHEMBL1145669, “Antihepatotoxic principles of Atractylodes rhizomes” (1983).

The subject of experiment [1] is Hepatocyte. The experiment can be described thus: Antihepatotoxic activity against carbon tetrachloride-induced cytotoxicity in rat hepatocytes assessed as GPT level at 1 mg/mL relative to control. It is filed as functional.
Experiment [2] concerns Hepatocyte. Put plainly: Antihepatotoxic activity against galactosamine-induced cytotoxicity in rat hepatocytes assessed as GPT level at 1 mg/mL relative to control. It is filed as functional.
Experiment [3] relates to Hepatocyte. Put plainly: Antihepatotoxic activity against carbon tetrachloride-induced cytotoxicity in rat hepatocytes assessed as GPT level at 0.1 mg/mL relative to control. The format is functional.
The target of experiment [4] is T1, Alanine aminotransferase 1 (Rattus norvegicus) (UniProt P25409).
T1 sequence (whole entry): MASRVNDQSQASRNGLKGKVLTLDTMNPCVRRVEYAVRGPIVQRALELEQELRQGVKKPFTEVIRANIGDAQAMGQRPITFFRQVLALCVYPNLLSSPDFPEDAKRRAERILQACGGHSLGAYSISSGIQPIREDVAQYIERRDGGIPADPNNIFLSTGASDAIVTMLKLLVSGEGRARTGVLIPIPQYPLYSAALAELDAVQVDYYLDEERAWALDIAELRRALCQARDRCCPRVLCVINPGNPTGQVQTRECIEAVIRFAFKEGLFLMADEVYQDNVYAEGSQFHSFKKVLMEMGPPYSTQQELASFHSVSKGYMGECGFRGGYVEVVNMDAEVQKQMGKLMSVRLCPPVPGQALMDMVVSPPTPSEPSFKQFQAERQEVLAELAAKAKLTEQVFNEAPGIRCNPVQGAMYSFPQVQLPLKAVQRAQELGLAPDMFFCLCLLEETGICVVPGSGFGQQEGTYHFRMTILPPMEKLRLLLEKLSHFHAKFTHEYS
Put plainly: Effect on GPT in rat hepatocytes relative to control. The conditions noted are these: Hepatocyte. The format is cell-based.

The test system of experiment [5] is Hepatocyte. Put plainly: Antihepatotoxic activity against carbon tetrachloride-induced cytotoxicity in rat hepatocytes assessed as GPT level at 0.01 mg/mL relative to control. The format is functional.
The subject of experiment [6] is Hepatocyte. Put plainly: Antihepatotoxic activity against galactosamine-induced cytotoxicity in rat hepatocytes assessed as GPT level at 0.1 mg/mL relative to control. The format is functional.
Experiment [7] deals with Hepatocyte. The experiment can be described thus: Antihepatotoxic activity against galactosamine-induced cytotoxicity in rat hepatocytes assessed as GPT level at 0.01 mg/mL relative to control. The format is functional.

Turning to `C[C@H]1CCC[C@]2(C)CC(=O)[C@@H](C(C)(C)O)C[C@@H]12`, the results for the Activity with Hepatocyte [1] and with Hepatocyte [2] were 71% and 81%, respectively.

Take `C[C@H]1CCC[C@]2(C)CC(O)[C@@H](C(C)(C)O)C[C@@H]12` (stereo partly drawn): the Activity with Hepatocyte [1] came out at 44%; in the experiment on Hepatocyte [2], 82%.

As for `C=C1CCC[C@]2(C)C[C@]3(O)OC(=O)C(C)=C3C[C@@H]12` [ATRACTYLENOLIDE III], the results for the Activity in the experiment with Hepatocyte [1] and in the experiment on Hepatocyte [2] were 103% and 97%, respectively.

On to `C=C1CCC[C@]2(C)C[C@@H]3OC(=O)C(C)=C3C[C@@H]12` [ATRACTYLENOLIDE II], for which the Activity in the experiment with Hepatocyte [1] was found to be 74%; in the experiment with Hepatocyte [2] it was 94%.

For `C=C1CCC[C@]2(C)C=C3OC(=O)C(C)=C3C[C@@H]12` [ATRACTYLENOLIDE I], the results for the Activity in the experiment on Hepatocyte [1] and in the experiment on Hepatocyte [2] were 68% and 107%, respectively.

For the compound `C=C1CCC[C@]2(C)Cc3occ(C)c3C[C@@H]12` [ATRACTYLON], the Activity in the experiment with Hepatocyte [3] was found to be 53%; with Hepatocyte [1], 25%; in experiment [4] it was 106%; in the experiment with Hepatocyte [5] it was 67%; with Hepatocyte [6], 92%; in the experiment on Hepatocyte [7], 99%. Besides, the Activity in the experiment on Hepatocyte [2] is given as 84%.

As for `C=C1CCC[C@]2(C)CC[C@@H](C(C)(C)O)C[C@@H]12` [BETA-EUDESMOL], the Activity was 70% with Hepatocyte [3]; 53% in the experiment on Hepatocyte [1]; 106% in experiment [4]; 83% in the experiment on Hepatocyte [5]; 94% in the experiment on Hepatocyte [6]; 104% in the experiment with Hepatocyte [7]. Further, the Activity in the experiment with Hepatocyte [2] is given as 79%.

In the case of `C[C@H]1CCC[C@]2(C)CC[C@@H](C(C)(C)O)C[C@H]12` [DIHYDROEUDESMOL], the Activity with Hepatocyte [1] was determined as 58%; in the experiment with Hepatocyte [2], 83%.

Regarding `CC1CCC[C@H](C)[C@@]12CC[C@@H](C(C)(C)O)C2` (stereo partly drawn) [DIHYDROHINESOL], the results for the Activity in the experiment with Hepatocyte [1] and in the experiment with Hepatocyte [2] were 67% and 35%, respectively.

Consider `OCc1ccco1` [FURFURYL ALCOHOL], for which the Activity in the experiment on Hepatocyte [3] is listed as 101%; with Hepatocyte [1], 90%; with Hepatocyte [5], 102%.

Turning to `CC1=CCC[C@H](C)[C@@]12CC[C@@H](C(C)(C)O)C2` [HINESOL], the Activity in the experiment with Hepatocyte [3] came out at 62%; in the experiment on Hepatocyte [1], 31%; in experiment [4], 105%; in the experiment on Hepatocyte [5], 79%; in the experiment with Hepatocyte [6] it was 99%; in the experiment on Hepatocyte [7], 101%. Besides, in the experiment on Hepatocyte [2], the Activity was found to be 73%.
